Test results: patent US20230102554A1 (GB002, INC., priority 2019, published 2023)

Key:
[1] = molecular target: T1, Human PDGFRα, cytoplasmic domain (GST-PDGFRα) (Homo sapiens, UniProt P16234); assay: Human PDGFRα biochemical inhibition assay (off-chip Mobility Shift Assay)
T1 construct: made in house

[2] = molecular target: T2, Human PDGFRβ, cytoplasmic domain (GST-PDGFRβ) (Homo sapiens, UniProt P09619); assay: Human PDGFRβ biochemical inhibition assay (off-chip Mobility Shift Assay)
T2 construct: made in house
T2 sequence (P09619 with tags, fused parts or gaps): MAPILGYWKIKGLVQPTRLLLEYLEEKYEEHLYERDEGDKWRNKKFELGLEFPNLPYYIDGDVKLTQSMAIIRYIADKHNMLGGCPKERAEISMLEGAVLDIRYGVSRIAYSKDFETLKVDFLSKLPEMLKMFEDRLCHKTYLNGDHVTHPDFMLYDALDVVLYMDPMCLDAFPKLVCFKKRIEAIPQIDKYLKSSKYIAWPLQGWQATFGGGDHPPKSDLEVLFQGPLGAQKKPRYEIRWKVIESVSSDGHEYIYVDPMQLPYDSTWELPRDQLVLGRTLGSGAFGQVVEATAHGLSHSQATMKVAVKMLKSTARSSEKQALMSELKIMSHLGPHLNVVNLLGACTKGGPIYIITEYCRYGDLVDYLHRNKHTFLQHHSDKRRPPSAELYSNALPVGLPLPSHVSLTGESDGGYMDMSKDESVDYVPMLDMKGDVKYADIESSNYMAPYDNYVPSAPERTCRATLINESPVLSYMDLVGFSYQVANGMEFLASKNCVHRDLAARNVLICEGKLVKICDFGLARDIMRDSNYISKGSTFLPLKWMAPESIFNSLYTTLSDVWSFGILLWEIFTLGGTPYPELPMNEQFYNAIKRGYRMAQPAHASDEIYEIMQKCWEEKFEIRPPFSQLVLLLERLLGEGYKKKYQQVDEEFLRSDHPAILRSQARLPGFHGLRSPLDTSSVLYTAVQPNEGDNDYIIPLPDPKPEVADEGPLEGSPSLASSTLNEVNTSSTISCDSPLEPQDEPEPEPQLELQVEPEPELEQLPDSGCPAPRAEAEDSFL
Summary of the method: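 GST-tagged cytoplasmic domain (aa 557-1106) from baculovirus was incubated 1 h at room temperature with compound, CSKtide, ATP at Km and Mg²⁺ in HEPES buffer, pH 7.5. Phosphorylated and unphosphorylated peptide were separated by off-chip mobility shift, and the product ratio P/(P+S) gave percent inhibition.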

T1 sequence (P16234 550-1089 T674I): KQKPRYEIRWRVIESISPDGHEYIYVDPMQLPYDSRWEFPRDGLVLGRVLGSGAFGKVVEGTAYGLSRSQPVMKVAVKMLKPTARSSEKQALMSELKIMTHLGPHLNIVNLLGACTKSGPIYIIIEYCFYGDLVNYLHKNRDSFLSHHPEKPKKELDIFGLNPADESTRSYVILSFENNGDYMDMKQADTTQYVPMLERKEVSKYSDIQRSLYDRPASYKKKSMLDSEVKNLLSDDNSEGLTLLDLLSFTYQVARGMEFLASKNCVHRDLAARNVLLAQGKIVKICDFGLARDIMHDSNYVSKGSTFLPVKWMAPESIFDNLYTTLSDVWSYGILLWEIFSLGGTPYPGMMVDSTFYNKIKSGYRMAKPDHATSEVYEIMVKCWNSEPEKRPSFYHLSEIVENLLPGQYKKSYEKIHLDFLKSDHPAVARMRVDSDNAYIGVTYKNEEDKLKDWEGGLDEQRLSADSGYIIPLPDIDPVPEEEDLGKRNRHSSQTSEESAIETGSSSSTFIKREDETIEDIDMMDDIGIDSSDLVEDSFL

Row | SMILES | IC50 [1] [nM] | IC50 [2] [nM]
1 | CCn1cc2ncc(N[C@@H](C)c3cccc(NC(=O)Cc4ccc(F)c(C)n4)c3)nc2n1 [Compound 699, (S)-N-(3-(1-((2-ethyl-2H-pyrazolo[3,4-b]pyrazin-6-yl)ainino)ethyl)phenvl)-2-(5-fluoro-6-methylpyridin-2-yl) acetamide] | < 300 | 300 to 1000
2 | CCn1cc2ncc(N[C@@H](C)c3cc(NC(=O)c4cc(F)c(CN5CCN(C)CC5)c(Cl)c4)ccc3C)nc2n1 [Compound 518, (S)-3-chloro-N-(3-(1-((2-ethyl-2H-pyrazolo[3,4-b]pyrazin-6-yl)amino)ethyl)-4-methylphenyl)-5-fluoro-4-((4-methylpiperazin-1-yl)methyl)benzamide] | < 300 | < 300
3 | CSc1cc(C(=O)Nc2cccc([C@H](C)Nc3cnc4cnn(C)c4n3)c2)ccc1Cl [Compound 236, (S)-4-chloro-N-(3-(1-((1-methyl-1H-pyrazolo[3,4-b]pyrazin-6-yl)amino)ethyl)phenyl)-3-(methylthio)benzamide] | < 300 | < 300
4 | CCn1cc2ncc(N[C@@H](C)c3cccc(NC(=O)c4cnc(N5CCCC5)c(C)c4)c3)nc2n1 [Compound 323, (S)-N-(3-(1-((2-ethyl-2H-pyrazolo[3,4-b]pyrazin-6-yl)amino)ethyl)phenyl)-5-methyl-6-(pyrrolidin-1-yl)nicotinamide] | < 300 | < 300
5 | CCn1cc2ncc(N[C@@H](C)c3cccc(NC(=O)c4ccc(OC(F)(F)F)nc4)c3)nc2n1 [Compound 282, (S)-N-(3-(1-((2-ethyl-2H-pyrazolo[3,4-b]pyrazin-6-yl)amino)ethyl)phenyl)-6-(trifluoromethoxy)nicotinamide] | < 300 | 300 to 1000
6 | CCn1cc2ncc(N[C@@H](C)c3cccc(NC(=O)c4cnc(OC)c(Cl)c4)c3)nc2n1 [Compound 356, (S)-5-chloro-N-(3-(1-((2-ethyl-2H-pyrazolo[3,4-b]pyrazin-6-yl)amino)ethyl)phenyl)-6-methoxynicotinamide] | < 300 | < 300
7 | CCOCc1cncc(C(=O)Nc2cccc([C@H](C)Nc3cnc4cnn(C)c4n3)c2)c1 [Compound 230, (S)-5-(ethoxymethyl)-N-(3-(1-((1-methyl-1H-pyrazolo[3,4-b]pyrazin-6-yl)amino)ethyl)phenyl)nicotinamide] | < 300 | < 300
8 | CCn1cc2ncc(N[C@@H](C)c3cc(NC(=O)Cc4cnc(C5CC5)c(F)c4)ccc3C)nc2n1 [Compound 708, (S)-2-(6-cyclopropyl-5-fluoropyridin-3-yl)-N-(3-(1-((2-ethyl-2H-pyrazolo[3,4-b]pyrazin-6-yl)amino)ethyl)-4-methylphenyl)acetamide] | < 300 | 300 to 1000
9 | COc1ncc(C(=O)Nc2cccc([C@H](C)Nc3cnc4cnn(C)c4n3)c2)cc1C(F)(F)F [Compound 247, (S)-6-methoxy-N-(3-(1-((1-methyl-1-pyrazolo[3,4-b]pyrazin-6-yl)amino)ethyl)phenyl)-5-(trifluoromethyl) nicotinamide] | < 300 | < 300
10 | CCn1cc2ncc(N[C@@H](C)c3cc(NC(=O)c4cnc5c(c4)CCCO5)ccc3F)nc2n1 [Compound 59, (S)-N-(3-(1-((2-ethyl-2H-pyrazolo[3,4-b]pyrazin-6-yl)amino)ethyl)-4-fluorophenyl)-3,4-dihydro-2H-pyrano[2,3-b] pyridine-6-carboxamide] | < 300 | < 300
11 | Cc1cc(C(=O)Nc2cccc([C@H](C)Nc3cnc4cn[nH]c4n3)c2)cnc1C(F)(F)F [Compound 98, (S)-N-(3-(1-((1H-pyrazolo[3,4-b]pyrazin-6-yl)amino)ethyl)phenyl)-5-methyl-6-(trifluoromethyl)nicotinamide] | < 300 | < 300
12 | Cc1cc(C(=O)Nc2ccc(F)c([C@H](C)Nc3cnc4cnn(C)c4n3)c2)cnc1NC(C)C [Compound 232, (S)-N-(4-fluoro-3-(1-((1-methyl-1H-pyrazolo[3,4-b]pyrazin-6-yl)amino)ethyl)phenyl)-6-(isopropylamino)-5-methylnicotinamide] | < 300 | < 300
13 | CCn1cc2ncc(N[C@@H](C)c3cccc(NC(=O)c4ccc(C)c(Cl)c4)c3)nc2n1 [Compound 332, (S)-3-chloro-N-(3-(1-((2-ethyl-2H-pyrazolo[3,4-b]pyrazin-6-yl)amino)ethyl)phenyl)-4-methylbenzamide] | < 300 | < 300
14 | CCOc1ccc(C(=O)Nc2cccc([C@H](C)Nc3cnc4cn(CC)nc4n3)c2)cn1 [Compound 286, (S)-6-ethoxy-N-(3-(1-((2-ethyl-2H-pyrazolo[3,4-b]pyrazin-6-yl)amino)ethyl)phenyl) nicotinamide] | < 300 | 300 to 1000
15 | CCn1cc2ncc(N[C@@H](C)c3cc(NC(=O)c4cncc(C)c4)ccc3C)cc2n1 [Compound 501, (S)-N-(3-(1-((2-ethyl-2H-pyrazolo[4,3-b]pyridin-6-yl)amino)ethyl)-4-methylphenyl)-5-methylnicotinamide] | < 300 | < 300
16 | Cc1cc(C(=O)Nc2cccc([C@H](C)Nc3cnc4cnn(C)c4n3)c2)cnc1C(F)F [Compound 190, (S)-6-(difluoromethyl)-5-methyl-N-(3-(1-((1-methyl-1H-pyrazolo[3,4-b]pyrazin-6-yl)amino)ethyl)phenyl) nicotinamide] | < 300 | < 300
17 | COC(=O)c1ccc(C(=O)Nc2cccc([C@H](C)Nc3cnc4cnn(C)c4n3)c2)cc1OC [Compound 261, methyl (S)-2-methoxy-4-((3-(1-((1-methyl-1H-pyrazolo[3,4-b]pyrazin-6-yl)amino)ethyl)phenyl)carbamoyl)benzoate] | < 300 | < 300
18 | C[C@H](Nc1cnc2cnn(C)c2n1)c1cccc(NC(=O)c2ccc(OC(F)(F)F)nc2)c1 [Compound 119, (S)-N-(3-(1-((1-methyl-1H-pyrazolo[3,4-b]pyrazin-6-yl)amino)ethyl)phenyl)-6-(trifluoromethoxy)nicotinamide] | < 300 | < 300
19 | Cc1cc(C(=O)Nc2cccc([C@H](C)Nc3cnc4cnn(C)c4n3)c2)ccc1CN1CCN(C)CC1 [Compound 208, (S)-3-methyl-N-(3-(1-((1-methyl-1H-pyrazolo[3,4-b]pyrazin-6-yl)amino)ethyl)phenyl)-4-((4-methylpiperazin-1-yl)methyl)benzamide] | < 300 | < 300
20 | CCn1cc2ncc(N[C@@H](C)c3cccc(NC(=O)c4ccn(C(C)C)n4)c3)nc2n1 [Compound 305, (S)-N-(3-(1-((2-ethyl-2H-pyrazolo[3,4-b]pyrazin-6-yl)amino)ethyl)phenyl)-1-isopropyl-1H-pyrazole-3-carboxamide] | < 300 | 300 to 1000
21 | CCc1nc2cc(N[C@@H](C)c3cccc(NC(=O)c4cncc(C)c4)c3)cnc2[nH]1 [Compound 24] | 300 to 1000 | 300 to 1000
22 | CCn1cc2ncc(N[C@@H](C)c3cccc(NC(=O)c4ccc(N5CCCC5)nc4)c3)nc2n1 [Compound 375, (S)-N-(3-(1-((2-ethyl-2H-pyrazolo[3,4-b]pyrazin-6-yl)amino)ethyl)phenyl)-6-(pyrrolidin-1-yl)nicotinamide] | < 300 | 300 to 1000
23 | Cc1cncc(C(=O)Nc2cccc([C@H](C)Nc3cnc4cnn(-c5ccccn5)c4n3)c2)c1 [Compound 272, (S)-5-methyl-N-(3-(1-((1-(pyridin-2-yl)-1H-pyrazolo[3,4-b]pyrazin-6-yl)amino)ethyl)phenyl)nicotinamide] | < 300 | < 300
24 | CCn1cc(C(=O)Nc2cccc([C@H](C)Nc3cnc4[nH]cc(C)c4n3)c2)cn1 [Compound 574, (S)-1-ethyl-N-(3-(1-((7-methyl-5H-pyrrolo[2,3-b]pyrazin-2-yl)amino)ethyl)phenyl)-1H-pyrazole-4-carboxamide] | < 300 | < 300
25 | Cc1cncc(C(=O)Nc2cccc([C@H](C)Nc3cnc4c(n3)CCCC4)c2)c1 [Compound 44, (S)-5-methyl-N-(3-(1-((5,6,7,8-tetrahydroquinoxalin-2-yl)amino)ethyl)phenyl) nicotinamide] | < 300 | ≥ 1000
26 | Cc1cncc(C(=O)Nc2cccc([C@H](C)Nc3cnc4cn(C)nc4n3)c2)c1 [Compound 274, (S)-5-methyl-N-(3-(1-((2-methyl-2H-pyrazolo[3,4-b]pyrazin-6-yl)amino)ethyl)phenyl)nicotinamide] | < 300 | ≥ 1000
27 | CCn1nc(C(=O)Nc2cccc([C@H](C)Nc3cnc4cnn(C)c4n3)c2)cc1C(C)C [Compound 163, (S)-1-ethyl-5-isopropyl-N-(3-(1-((1-methyl-1H-pyrazolo[3,4-b]pyrazin-6-yl)amino)ethyl)phenyl)-1H-pyrazole-3-carboxamide] | < 300 | < 300
28 | CCn1cc2ncc(N[C@@H](C)c3cccc(NC(=O)c4ccc(CN5CCN(C)CC5)c(C5CC5)c4)c3)nc2n1 [Compound 502, (S)-3-cyclopropyl-N-(3-(1-((2-ethyl-2H-pyrazolo[3,4-b]pyrazin-6-yl)amino)ethyl)phenyl)-4-((4-methylpiperazin-1-yl)methyl)benzamide] | < 300 | < 300
29 | CCn1cc2ncc(N[C@@H](C)c3cccc(NC(=O)c4ccc(CN5CCC6(COC6)C5)c(C)c4)c3)nc2n1 [Compound 460, (S)-4-((2-oxa-6-azaspiro[3.4]octan-6-yl)methyl)-N-(3-(1-((2-ethyl-2H-pyrazolo[3,4-b]pyrazin-6-yl)amino)ethyl)phenyl)-3-methylbenzamide] | < 300 | < 300
30 | Cc1cncc(C(=O)Nc2cccc([C@H](C)Nc3cncc4c3cnn4C)c2)c1 [Compound 750, (S)-5-methyl-N-(3-(1-((1-methyl-1H-pyrazolo[3,4-c]pyridin-4-yl)amino)ethyl)phenyl)nicotinamide] | ≥ 1000 | ≥ 1000
